According to patent US10626093B2, “Polymorphic form of crystalline rosuvastatin calcium and novel processes for crystalline as well as amorphous rosuvastatin calcium” (MOREPEN LABORATORIES LIMITED, priority 2016, dated 2020):

Key:
[1] = Stability study of Rosuvastatin calcium form M (30° C./65% RH and 40° C./75% RH); format: physicochemical
Procedure: According to one more aspect of current invention, the form M is stable at 30° C. with 65% RH for 48 months & 40° C. with 75% RH for 6 months for all ICH/EP/USP grade.

[2] = Stability study of Rosuvastatin calcium form M2 (plant batches, RT); format: physicochemical
Procedure: According to still another embodiment of current invention, The form M2 is stable at 30° C. with 65% RH for 24 months & 40° C. with 75% RH for 6 months for all ICH/EP/USP grade.

[3] = 40° C. with 75% RH for 6 months

7-[4-(4-flurophenyl)-6-isopropyl-2-(N-methyl-N-methylsulfonylamino)-pyrimidin-5-yl]-(3R,5S)-dihydroxy-hept-6-enoic acid Calcium salt [form M]
Stability ([1]; 30° C. with 65% RH for 48 months): stable | Assay (OAB) ([1]; 30° C./65% RH, 3 months): 99.58 % w/w | Description ([1]; 30° C./65% RH, 3 months): A white | Related Substances (HPLC) Individual Unknown Imp. ([1]; 30° C./65% RH, 3 months): 0.02% | Related Substances (HPLC) Lactone ([1]; 30° C./65% RH, 3 months): 0.05% | Related Substances (HPLC) RT-07 ([1]; 30° C./65% RH, 3 months): 0.05% | Related Substances (HPLC) Total Imp. ([1]; 30° C./65% RH, 3 months): 0.16% | Water ([1]; 30° C./65% RH, 3 months): 5.30% | Assay (OAB) ([1]; 30° C./65% RH, 6 months): 99.54 % w/w | Description ([1]; 30° C./65% RH, 6 months): A white | Related Substances (HPLC) Individual Unknown Imp. ([1]; 30° C./65% RH, 6 months): 0.04% | Related Substances (HPLC) Lactone ([1]; 30° C./65% RH, 6 months): 0.04% | Related Substances (HPLC) RT-07 ([1]; 30° C./65% RH, 6 months): 0.05% | Related Substances (HPLC) Total Imp. ([1]; 30° C./65% RH, 6 months): 0.14% | Water ([1]; 30° C./65% RH, 6 months): 5.43% | Assay (OAB) ([1]; 30° C./65% RH, 9 months): 99.33 % w/w | Description ([1]; 30° C./65% RH, 9 months): A white | Related Substances (HPLC) Individual Unknown Imp. ([1]; 30° C./65% RH, 9 months): 0.02% | Related Substances (HPLC) Lactone ([1]; 30° C./65% RH, 9 months): 0.04% | Related Substances (HPLC) RT-07 ([1]; 30° C./65% RH, 9 months): 0.05% | Related Substances (HPLC) Total Imp. ([1]; 30° C./65% RH, 9 months): 0.14% | Water ([1]; 30° C./65% RH, 9 months): 5.44% | Assay (OAB) ([1]; 30° C./65% RH, 12 months): 99.55 % w/w | Description ([1]; 30° C./65% RH, 12 months): A white | Related Substances (HPLC) Anti-Isomer ([1]; 30° C./65% RH, 12 months): 0.04% | Related Substances (HPLC) Individual Unknown Imp. ([1]; 30° C./65% RH, 12 months): 0.02% | Related Substances (HPLC) Lactone ([1]; 30° C./65% RH, 12 months): 0.05% | Related Substances (HPLC) RT-07 ([1]; 30° C./65% RH, 12 months): 0.06% | Related Substances (HPLC) Total Imp. ([1]; 30° C./65% RH, 12 months): 0.17% | Water ([1]; 30° C./65% RH, 12 months): 5.55% | Assay (OAB) ([1]; 30° C./65% RH, 18 months): 99.70 % w/w | Description ([1]; 30° C./65% RH, 18 months): A white | Related Substances (HPLC) Anti-Isomer ([1]; 30° C./65% RH, 18 months): 0.03% | Related Substances (HPLC) Individual Unknown Imp. ([1]; 30° C./65% RH, 18 months): 0.02% | Related Substances (HPLC) Lactone ([1]; 30° C./65% RH, 18 months): 0.04% | Related Substances (HPLC) RT-07 ([1]; 30° C./65% RH, 18 months): 0.05% | Related Substances (HPLC) Total Imp. ([1]; 30° C./65% RH, 18 months): 0.16% | Water ([1]; 30° C./65% RH, 18 months): 5.57% | Assay (OAB) ([1]; 30° C./65% RH, 24 months): 99.81 % w/w | Description ([1]; 30° C./65% RH, 24 months): A white | Related Substances (HPLC) Anti-Isomer ([1]; 30° C./65% RH, 24 months): 0.04% | Related Substances (HPLC) Individual Unknown Imp. ([1]; 30° C./65% RH, 24 months): 0.02% | Related Substances (HPLC) Lactone ([1]; 30° C./65% RH, 24 months): 0.04% | Related Substances (HPLC) RT-07 ([1]; 30° C./65% RH, 24 months): 0.05% | Related Substances (HPLC) Total Imp. ([1]; 30° C./65% RH, 24 months): 0.15% | Water ([1]; 30° C./65% RH, 24 months): 5.72% | Assay (OAB) ([1]; 30° C./65% RH, 36 months): 99.75 % w/w | Description ([1]; 30° C./65% RH, 36 months): A white | Related Substances (HPLC) Anti-Isomer ([1]; 30° C./65% RH, 36 months): 0.04% | Related Substances (HPLC) Individual Unknown Imp. ([1]; 30° C./65% RH, 36 months): 0.02% | Related Substances (HPLC) Lactone ([1]; 30° C./65% RH, 36 months): 0.04% | Related Substances (HPLC) RT-07 ([1]; 30° C./65% RH, 36 months): 0.05% | Related Substances (HPLC) Total Imp. ([1]; 30° C./65% RH, 36 months): 0.16% | Water ([1]; 30° C./65% RH, 36 months): 5.74% | Assay (OAB) ([1]; 30° C./65% RH, 48 months): 99.66 % w/w | Description ([1]; 30° C./65% RH, 48 months): A white | Related Substances (HPLC) Anti-Isomer ([1]; 30° C./65% RH, 48 months): 0.05% | Related Substances (HPLC) Individual Unknown Imp. ([1]; 30° C./65% RH, 48 months): 0.02% | Related Substances (HPLC) Lactone ([1]; 30° C./65% RH, 48 months): 0.04% | Related Substances (HPLC) RT-07 ([1]; 30° C./65% RH, 48 months): 0.05% | Related Substances (HPLC) Total Imp. ([1]; 30° C./65% RH, 48 months): 0.16% | Water ([1]; 30° C./65% RH, 48 months): 5.90% | Stability [1, 3]: stable | Assay (OAB) ([1]; 40° C./75% RH, 1 month): 100.03 % w/w | Description ([1]; 40° C./75% RH, 1 month): A white | Related Substances (HPLC) Individual Unknown Imp. ([1]; 40° C./75% RH, 1 month): 0.03% | Related Substances (HPLC) Lactone ([1]; 40° C./75% RH, 1 month): 0.04% | Related Substances (HPLC) RT-07 ([1]; 40° C./75% RH, 1 month): 0.05% | Related Substances (HPLC) Total Imp. ([1]; 40° C./75% RH, 1 month): 0.14% | Water ([1]; 40° C./75% RH, 1 month): 5.65% | Assay (OAB) ([1]; 40° C./75% RH, 2 months): 99.93 % w/w | Description ([1]; 40° C./75% RH, 2 months): A white | Related Substances (HPLC) Individual Unknown Imp. ([1]; 40° C./75% RH, 2 months): 0.02% | Related Substances (HPLC) Lactone ([1]; 40° C./75% RH, 2 months): 0.04% | Related Substances (HPLC) RT-07 ([1]; 40° C./75% RH, 2 months): 0.05% | Related Substances (HPLC) Total Imp. ([1]; 40° C./75% RH, 2 months): 0.15% | Water ([1]; 40° C./75% RH, 2 months): 5.59% | Assay (OAB) ([1]; 40° C./75% RH, 3 months): 100.03 % w/w | Description ([1]; 40° C./75% RH, 3 months): A white | Related Substances (HPLC) Individual Unknown Imp. ([1]; 40° C./75% RH, 3 months): 0.02% | Related Substances (HPLC) Lactone ([1]; 40° C./75% RH, 3 months): 0.04% | Related Substances (HPLC) RT-07 ([1]; 40° C./75% RH, 3 months): 0.05% | Related Substances (HPLC) Total Imp. ([1]; 40° C./75% RH, 3 months): 0.13% | Water ([1]; 40° C./75% RH, 3 months): 5.66% | Assay (OAB) ([1]; 40° C./75% RH, 6 months): 99.59 % w/w | Description ([1]; 40° C./75% RH, 6 months): A white | Related Substances (HPLC) Individual Unknown Imp. ([1]; 40° C./75% RH, 6 months): 0.02% | Related Substances (HPLC) Lactone ([1]; 40° C./75% RH, 6 months): 0.04% | Related Substances (HPLC) RT-07 ([1]; 40° C./75% RH, 6 months): 0.04% | Related Substances (HPLC) Total Imp. ([1]; 40° C./75% RH, 6 months): 0.12% | Water ([1]; 40° C./75% RH, 6 months): 5.63% | Assay (OAB) ([1]; Initial): 100.08 % w/w | Description ([1]; Initial): A white | Related Substances (HPLC) Individual Unknown Imp. ([1]; Initial): 0.02% | Related Substances (HPLC) Lactone ([1]; Initial): 0.02% | Related Substances (HPLC) RT-07 ([1]; Initial): 0.05% | Related Substances (HPLC) Total Imp. ([1]; Initial): 0.13% | Water ([1]; Initial): 5.06%

7-[4-(4-flurophenyl)-6-isopropyl-2-(N-methyl-N-methyl sulfonyl amino)-pyrimidin-5-yl]-(3R,5S)-dihydroxy-hept-6-enoic acid Calcium salt [form M2]
Stability ([2]; 30° C. with 65% RH for 24 months): stable | Stability [2, 3]: stable
